Activity calls are given as the source filed them. The rule behind the calls is not given here.
How the values were obtained:
[1] = molecular target: Amyloid-beta precursor protein (Homo sapiens) (UniProt P05067); test: Inhibition of Amyloid beta (1 to 42) (unknown origin) self aggregation at 20 uM incubated for 12 hrs by thioflavin T assay
[2] = molecular target: Amyloid-beta precursor protein (Homo sapiens) (UniProt P05067); test: Inhibition of Amyloid beta (1 to 42) (unknown origin)-induced cytotoxicity in human SH-SY5Y cells assessed as increase in cell viability at 20 uM incubated for 48 hrs by WST8 assay; type: cell-based
[3] = molecular target: Amyloid-beta precursor protein (Homo sapiens) (UniProt P05067); test: Inhibition of Amyloid beta (1 to 42) (unknown origin) self aggregation assessed as decrease in negative maximum of CD spectrum of amyloid beta (1-42) incubated for 4 hrs by CD spectroscopy
SH-SY5Y = test: Cytotoxicity in human SH-SY5Y cells assessed as reduction in cell viability at 0.1 to 1000 nM incubated for 48 hrs by WST8 assay; type: cell-based; settings: 1 µM
[4] = molecular target: Amyloid-beta precursor protein (Homo sapiens) (UniProt P05067); test: Inhibition of Amyloid beta (1 to 42) (unknown origin)-induced cytotoxicity in human SH-SY5Y cells assessed as increase in cell viability incubated for 48 hrs by WST8 assay; type: cell-based
[5] = molecular target: Amyloid-beta precursor protein (Homo sapiens) (UniProt P05067); test: Inhibition of Amyloid beta (1 to 42) (unknown origin) fibril formation assessed as reduction in number of fibrils at 20 uM incubated for 48 hrs by transmission-type electron microscopy
[6] = molecular target: Amyloid-beta precursor protein (Homo sapiens) (UniProt P05067); test: Inhibition of Amyloid beta (1 to 42) (unknown origin) fibril formation assessed as reduction in thickness of fibrils at 20 uM incubated for 48 hrs by transmission-type electron microscopy
[7] = molecular target: Amyloid-beta precursor protein (Homo sapiens) (UniProt P05067); test: Inhibition of Amyloid beta (1 to 42) (unknown origin)-induced cytotoxicity in human SH-SY5Y cells assessed as increase in cell viability at 40 uM incubated for 48 hrs by WST8 assay; type: cell-based

Amyloid-beta precursor protein (Homo sapiens), sequence (P05067 whole entry): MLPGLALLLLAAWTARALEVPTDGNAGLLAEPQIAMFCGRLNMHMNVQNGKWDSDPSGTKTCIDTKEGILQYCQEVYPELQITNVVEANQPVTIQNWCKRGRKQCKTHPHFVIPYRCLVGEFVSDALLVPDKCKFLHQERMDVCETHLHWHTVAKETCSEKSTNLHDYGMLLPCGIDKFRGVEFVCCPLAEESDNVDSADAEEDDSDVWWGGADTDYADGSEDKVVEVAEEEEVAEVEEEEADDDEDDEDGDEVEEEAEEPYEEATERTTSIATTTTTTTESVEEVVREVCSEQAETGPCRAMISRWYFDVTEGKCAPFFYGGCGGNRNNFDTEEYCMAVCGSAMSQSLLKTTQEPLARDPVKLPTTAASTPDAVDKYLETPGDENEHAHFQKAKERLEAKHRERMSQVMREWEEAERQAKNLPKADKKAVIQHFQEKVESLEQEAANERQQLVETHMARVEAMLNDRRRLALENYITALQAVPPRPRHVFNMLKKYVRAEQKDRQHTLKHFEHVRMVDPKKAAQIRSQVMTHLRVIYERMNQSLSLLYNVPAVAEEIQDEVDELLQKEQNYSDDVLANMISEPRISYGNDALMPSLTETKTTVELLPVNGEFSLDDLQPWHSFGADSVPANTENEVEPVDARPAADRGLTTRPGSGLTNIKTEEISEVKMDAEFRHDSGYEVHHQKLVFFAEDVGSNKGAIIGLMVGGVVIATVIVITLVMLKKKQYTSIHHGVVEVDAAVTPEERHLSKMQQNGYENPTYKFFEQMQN

| Structure (SMILES) | inhibition [1] | inhibition [2] | inhibition [3] | Activity (SH-SY5Y) | inhibition [4] | inhibition [5] | inhibition [6] | inhibition [7] |
| --- | --- | --- | --- | --- | --- | --- | --- | --- |
| CC1(C)O[C@H]2[C@H](c3c(O)cc(O)c4c3O[C@@H]3c5cc(O)c(O)cc5C(C)(C)O[C@H]3C4)c3c(O)cc(O)cc3O[C@@H]2c2cc(O)c(O)cc21 | Active | 100% | Active | Non-Toxic | Dose-dependent effect | Active | Active |  |
| Oc1cc(O)c2c(c1)O[C@H](c1ccc(O)c(O)c1)[C@@H](O)C2 | Active |  |  |  |  |  |  |  |
| CC1(C)O[C@H]2Cc3c(O)cc(O)c([C@@H]4c5c(O)cc(O)cc5O[C@H](c5ccc(O)c(O)c5)[C@H]4O)c3O[C@@H]2c2cc(O)c(O)cc21 | Active |  |  | Non-Toxic | Dose-dependent effect |  |  | 100% |
| CC1(C)O[C@H]2Cc3c(O)cc(O)cc3O[C@@H]2c2cc(O)c(O)cc21 | Active |  |  |  |  |  |  |  |
| Oc1cc(O)c2c(c1)O[C@H](c1ccc(O)c(O)c1)[C@@H](O)[C@@H]2c1c(O)cc(O)c2c1O[C@H](c1ccc(O)c(O)c1)[C@@H](O)C2 | Active |  |  | Non-Toxic | Dose-dependent effect |  |  | 100% |

From ChEMBL document CHEMBL4385658, “Inhibition of β-amyloid-induced neurotoxicity by planar analogues of procyanidin B3” (Bioorg Med Chem Lett, 2019)
